# Experimental data from article PMC4467156, “A new chemical inhibitor of angiogenesis and tumorigenesis that targets the VEGF signaling pathway upstream of Ras” (Oncotarget, 2015).
# Columns and labels:
# [1] = molecular target: ERK2 (Homo sapiens, UniProt P28482); assay: In vitro kinase assay ERK2; assay type: biochemical; settings: concentrations up to 50 μM
# Method: (§1) We first wondered whether COB223 required to be internalized to exert its biological effect. For this, we synthesized a covalent complex between BSA and COB223 and purified it. […] In vitro kinase assays were performed with a panel of purified protein-kinases involved in mitogenic signaling, including VEGFR2, FGFR1, FGFR2, PDGFRß, Met, Raf, MEK1, ERK1, ERK2, PKCα, PKCβI, PKCβII, PKCζ as indicated in Table 2. […] We then analyzed the effect of COB223 on VEGF-induced phosphorylations of VEGFR2, MEK and ERK1/2 (Figure 9). […] (Figure 9A, 9B). […] It was also specific of the p42/p44 MAP kinase pathway as activation of p38 MAP kinase phosphorylation in HUVEC cells by VEGF or serum was unaffected by COB223 (data not shown). The activation of src phosphorylation by VEGF in HUVECs was also unaffected by COB223 (data not shown).
# [2] = molecular target: MEK1 (Homo sapiens, UniProt Q02750); assay: In vitro kinase assay MEK1; assay type: biochemical; settings: concentrations up to 50 μM
# Chain of MEK1 (Q02750 whole entry, species assumed): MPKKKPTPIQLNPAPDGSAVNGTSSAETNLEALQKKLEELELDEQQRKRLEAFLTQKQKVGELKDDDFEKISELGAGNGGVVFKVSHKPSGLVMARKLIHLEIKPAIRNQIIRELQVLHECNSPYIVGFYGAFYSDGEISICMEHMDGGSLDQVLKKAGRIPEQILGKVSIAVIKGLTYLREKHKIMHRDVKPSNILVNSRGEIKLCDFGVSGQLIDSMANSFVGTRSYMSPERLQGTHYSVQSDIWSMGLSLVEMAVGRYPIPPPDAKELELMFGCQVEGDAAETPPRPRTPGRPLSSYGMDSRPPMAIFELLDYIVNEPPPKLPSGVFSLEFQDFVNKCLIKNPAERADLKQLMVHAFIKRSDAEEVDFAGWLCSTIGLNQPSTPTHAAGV
# Method: as §1
# [3] = molecular target: PKC ζ (Homo sapiens, UniProt Q05513); assay: In vitro kinase assay PKC ζ; assay type: biochemical; settings: concentrations up to 50 μM
# Chain of PKC ζ (Q05513 whole entry): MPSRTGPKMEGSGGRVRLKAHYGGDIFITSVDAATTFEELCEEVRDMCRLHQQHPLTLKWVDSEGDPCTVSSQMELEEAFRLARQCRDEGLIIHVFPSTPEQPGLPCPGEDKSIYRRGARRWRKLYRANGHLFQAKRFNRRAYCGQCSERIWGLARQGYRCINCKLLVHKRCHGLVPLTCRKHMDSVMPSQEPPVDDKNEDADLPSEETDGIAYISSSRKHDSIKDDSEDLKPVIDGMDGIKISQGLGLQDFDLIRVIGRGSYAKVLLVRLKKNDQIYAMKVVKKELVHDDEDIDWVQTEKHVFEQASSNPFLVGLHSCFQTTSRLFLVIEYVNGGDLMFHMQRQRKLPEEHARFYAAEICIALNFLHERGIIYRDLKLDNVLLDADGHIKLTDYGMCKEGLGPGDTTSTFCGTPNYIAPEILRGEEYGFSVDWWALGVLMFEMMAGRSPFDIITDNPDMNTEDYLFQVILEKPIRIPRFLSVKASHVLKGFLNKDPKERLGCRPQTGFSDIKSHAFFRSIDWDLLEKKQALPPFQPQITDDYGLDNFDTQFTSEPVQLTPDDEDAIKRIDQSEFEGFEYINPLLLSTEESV
# Method: as §1
# [4] = system: ERK phosphorylation; assay: ERK phosphorylation in CCL-39 fibroblasts with estrogen-responsive active Raf; assay type: cell-based; settings: estradiol 3 h, 25 μM COB223 15 or 30 min
# Method: Figure 11 Effect of COB223 on mitogenic or oncogenic activation of the Ras /MEK/ERK signaling pathway (A) Serum-starved HUVEC cells were incubated for 15 min in the presence of 10 ng/mL VEGF-A and in the absence or the presence of 25 μM COB223. The phosphorylations of PLCγ on tyrosine 783, of Raf on serine 338 or on serine 259 and of ERK1/2 were then analyzed by Western blot analysis of the cell lysates as described in Material and Methods. Western blots for total PLCγ, Raf and ERK1/2 were used as loading controls. (B) MCF10A cells overexpressing an oncogenic version of Ras (MCF10A-RasG12V) were treated for the indicated periods of time by 25 μM COB223. Total ERK1/2 and phospho-ERK1/2 were then visualized by Western blotting of the cell extracts. Non-treated regular MCF10A cells were analyzed as a control (first lane). (C) CCL-39 fibroblasts expressing a constitutively active Raf in an estrogen-responsive manner were stimulated for 3 h with estradiol and treated for 15 or 30 min with 25 μM COB223. Total ERK1/2 and phospho-ERK1/2 were then visualized by Western blotting of the cell extracts. Non-treated cells were analyzed as a control (left lanes).
# [5] = system: 3T3-GFP cells; assay: Scratch wound closure assay, 3T3-GFP; assay type: cell-based; settings: wound closure after 24 h, 10% FCS, tested 3.125 μM to 100 μM
# Source text: Using this assay, we screened the academic library of the University of Grenoble, which is composed of 1360 original molecules. Setting the threshold of significant responses at 75% of the maximal inhibition, we identified 80 inhibitory molecules. At this stage, we reasoned that molecules that would affect the cytoskeleton dynamics or the adhesion properties of any cell type would be positive in this assay but would not represent good candidates for further development. We thus decided to perform a secondary counterscreen of the first 80 selected compounds on GFP-expressing 3T3 fibroblasts (3T3-GFP) using the same scratch assay. We then focused our interest on the 5 molecules that inhibited more strongly HMEC-GFP than 3T3-GFP wound healing. […] We synthesized a series of 30 analogs and tested them at various concentrations both on HMEC-GFP and 3T3-GFP cells. […] Dansyl and naphthalimide aromatic groups, found in COB223 and COB227 respectively, appeared very efficient. The presence of the diaminomethyl group on dansyl is critical for the activity of COB223 as shown by the lower efficiency of COB235 (IC50 is 8 times higher than that of COB223). COB223 and COB227 contain a tert-butyloxycarbonyl function (BOC group) as a second hydrophobic group. Replacement of BOC by an amino group decreased the efficiency and the specificity (compare 05-102-L-B09 vs 05-06-L-D03, or COB227 vs COB228).
# (§2) Confluent cell monolayers were wounded with a plastic pipet tip, washed gently with phosphate buffer saline (PBS) and treated with complete media containing molecules, as indicated. Cells were placed at 37°C into the incubator and photographed at indicated times. Quantitation of closure of the monolayer was performed using the NIH Image J program (http://rsbweb.nih.gov/ij/). Results are expressed as percentage of wound closure at t = 24 h as compared to the initial wound at t = 0 h.
# [6] = system: src phosphorylation; assay: src phosphorylation in HUVECs; assay type: cell-based, human; settings: data not shown
# [7] = system: HUVEC cells; assay: Scratch assay on HUVEC with or without mitomycin C; assay type: cell-based, human; settings: HUVEC, 25 μM COB223, mitomycin C 2 μg/mL pretreatment, 24 h and 48 h
# Method: as §2, with “0 h. […]” for “0 h.”
# www.impactjournals.com/oncotarget/ Oncotarget, Supplementary Materials 2015 […]
# Figure S1: Effect of COB223 on endothelial cell migration. (A) Scratch assay: Confluent HUVEC cells were pretreated for 24 h without (CTL) or with 2 μg/mL of mitomycin C before a wound was made in the cell monolayer. After wounding, cells were incubated at 37°C in the absence or the presence of 25 μM COB223. Wound closure was measured after 24 h and 48 h of incubation as described in Material and Methods. […]
# (B) Boyden chamber assay: The technique is described in Material and Methods. We measured the passage of fluorescently labeled HUVEC cells through a 3 μm-porous membrane in response to fetal calf serum used as a chemo-attractant. […] The Figure represents the mean fluorescence ± SD of duplicate determinations after 24 h or 48h of incubation from two independent experiments. […]
# [8] = molecular target: VEGFR2 (KDR) (Homo sapiens, UniProt P35968); assay: In vitro kinase assay VEGFR2; assay type: biochemical; settings: concentrations up to 50 μM
# Chain of VEGFR2 (KDR) (P35968 20-1356, species assumed): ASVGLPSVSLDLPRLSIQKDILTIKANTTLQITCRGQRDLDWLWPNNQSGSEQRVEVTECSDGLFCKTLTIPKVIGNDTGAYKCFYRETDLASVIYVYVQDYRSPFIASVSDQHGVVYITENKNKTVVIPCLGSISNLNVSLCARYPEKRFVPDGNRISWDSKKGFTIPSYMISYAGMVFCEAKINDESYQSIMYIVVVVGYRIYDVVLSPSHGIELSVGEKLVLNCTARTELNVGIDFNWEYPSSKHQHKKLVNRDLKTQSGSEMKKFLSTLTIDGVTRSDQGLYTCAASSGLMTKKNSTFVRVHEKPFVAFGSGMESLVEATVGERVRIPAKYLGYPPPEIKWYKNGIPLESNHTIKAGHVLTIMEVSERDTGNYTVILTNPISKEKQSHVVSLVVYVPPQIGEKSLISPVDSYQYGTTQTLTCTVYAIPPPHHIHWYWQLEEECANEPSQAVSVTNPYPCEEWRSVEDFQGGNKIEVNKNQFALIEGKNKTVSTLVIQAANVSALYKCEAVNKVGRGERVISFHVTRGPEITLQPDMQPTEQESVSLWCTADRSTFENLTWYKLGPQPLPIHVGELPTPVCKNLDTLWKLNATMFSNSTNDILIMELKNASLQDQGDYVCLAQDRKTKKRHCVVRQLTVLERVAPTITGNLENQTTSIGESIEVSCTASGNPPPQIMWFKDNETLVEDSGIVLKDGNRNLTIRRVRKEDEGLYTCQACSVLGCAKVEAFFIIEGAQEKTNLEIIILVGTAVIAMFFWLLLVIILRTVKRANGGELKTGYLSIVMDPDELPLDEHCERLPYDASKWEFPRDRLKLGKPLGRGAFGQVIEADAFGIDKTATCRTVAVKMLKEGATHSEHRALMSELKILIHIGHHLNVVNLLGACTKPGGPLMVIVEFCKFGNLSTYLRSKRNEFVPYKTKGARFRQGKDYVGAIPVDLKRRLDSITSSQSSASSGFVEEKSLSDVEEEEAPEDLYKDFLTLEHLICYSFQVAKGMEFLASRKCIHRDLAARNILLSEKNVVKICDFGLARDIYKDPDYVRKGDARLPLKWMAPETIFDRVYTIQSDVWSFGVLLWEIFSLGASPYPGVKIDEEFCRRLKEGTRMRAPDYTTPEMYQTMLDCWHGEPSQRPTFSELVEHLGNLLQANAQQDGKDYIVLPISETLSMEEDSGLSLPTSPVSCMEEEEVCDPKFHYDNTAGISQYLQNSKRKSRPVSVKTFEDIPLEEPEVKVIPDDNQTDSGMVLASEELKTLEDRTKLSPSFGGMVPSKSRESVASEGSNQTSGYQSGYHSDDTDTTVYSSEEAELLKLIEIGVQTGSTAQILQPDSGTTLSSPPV
# Method: as §1
# [9] = system: HMVECd cells; assay: 3H-thymidine incorporation, HMVECd; assay type: cell-based, human; settings: 24 h
# Method: Cells were treated with molecules in complete medium. After 22 h, 1 μCi per well H^3 thymidine was added for 2 hours. Cells are then fixed by 10% trichloroacetic acid and harvested with 0.2N NaOH, 1% SDS. Radioactivity was measured in a beta counter.
# Chain of ERK2 (P28482 whole entry, species assumed): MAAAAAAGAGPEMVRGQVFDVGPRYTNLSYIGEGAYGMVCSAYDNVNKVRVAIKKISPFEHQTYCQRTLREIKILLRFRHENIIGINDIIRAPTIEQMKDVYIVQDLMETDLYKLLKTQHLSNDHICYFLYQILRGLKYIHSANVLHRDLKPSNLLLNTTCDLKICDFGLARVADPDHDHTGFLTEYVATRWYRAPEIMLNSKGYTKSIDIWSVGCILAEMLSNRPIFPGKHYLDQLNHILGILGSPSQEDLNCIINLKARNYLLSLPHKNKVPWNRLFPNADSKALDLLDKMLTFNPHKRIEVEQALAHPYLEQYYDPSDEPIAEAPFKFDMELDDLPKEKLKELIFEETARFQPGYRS
compound,measurement,setting,value
"CN(C)c1cccc2c(S(=O)(=O)NCCCN3CCN(CCCNC(=O)OC(C)(C)C)CC3)cccc12 [COB223, tert-Butyl 3-(4-(3-(5-(dimethylamino)naphthalene-1-sulfonamido)propyl)piperazin-1-yl) propylcarbamate]",kinase inhibition,[1],None of them was inhibited
same,kinase inhibition,[2],None of them was inhibited
same,kinase inhibition,[3],None of them was inhibited
same,ERK phosphorylation induced by estrogen,[4],did not inhibit
same,IC50,[5],25 µM
same,activation of src phosphorylation by VEGF,[6],unaffected
same,endothelial cell wound closure in the presence of mitomycin C,[7],still inhibited
same,kinase inhibition,[8],None of them was inhibited
same,concentrations inhibiting thymidine incorporation,[9],above 5 μM
